Assay results reported in the Kinase Knowledgebase extract (Sharma et al. 2016).

Molecular target: ROCK2 (human) (UniProt O75116)
Experiment: Assessment of ROCK2 Kinase Activity

Sequence of ROCK2 (human) (O75116 whole entry, looked up): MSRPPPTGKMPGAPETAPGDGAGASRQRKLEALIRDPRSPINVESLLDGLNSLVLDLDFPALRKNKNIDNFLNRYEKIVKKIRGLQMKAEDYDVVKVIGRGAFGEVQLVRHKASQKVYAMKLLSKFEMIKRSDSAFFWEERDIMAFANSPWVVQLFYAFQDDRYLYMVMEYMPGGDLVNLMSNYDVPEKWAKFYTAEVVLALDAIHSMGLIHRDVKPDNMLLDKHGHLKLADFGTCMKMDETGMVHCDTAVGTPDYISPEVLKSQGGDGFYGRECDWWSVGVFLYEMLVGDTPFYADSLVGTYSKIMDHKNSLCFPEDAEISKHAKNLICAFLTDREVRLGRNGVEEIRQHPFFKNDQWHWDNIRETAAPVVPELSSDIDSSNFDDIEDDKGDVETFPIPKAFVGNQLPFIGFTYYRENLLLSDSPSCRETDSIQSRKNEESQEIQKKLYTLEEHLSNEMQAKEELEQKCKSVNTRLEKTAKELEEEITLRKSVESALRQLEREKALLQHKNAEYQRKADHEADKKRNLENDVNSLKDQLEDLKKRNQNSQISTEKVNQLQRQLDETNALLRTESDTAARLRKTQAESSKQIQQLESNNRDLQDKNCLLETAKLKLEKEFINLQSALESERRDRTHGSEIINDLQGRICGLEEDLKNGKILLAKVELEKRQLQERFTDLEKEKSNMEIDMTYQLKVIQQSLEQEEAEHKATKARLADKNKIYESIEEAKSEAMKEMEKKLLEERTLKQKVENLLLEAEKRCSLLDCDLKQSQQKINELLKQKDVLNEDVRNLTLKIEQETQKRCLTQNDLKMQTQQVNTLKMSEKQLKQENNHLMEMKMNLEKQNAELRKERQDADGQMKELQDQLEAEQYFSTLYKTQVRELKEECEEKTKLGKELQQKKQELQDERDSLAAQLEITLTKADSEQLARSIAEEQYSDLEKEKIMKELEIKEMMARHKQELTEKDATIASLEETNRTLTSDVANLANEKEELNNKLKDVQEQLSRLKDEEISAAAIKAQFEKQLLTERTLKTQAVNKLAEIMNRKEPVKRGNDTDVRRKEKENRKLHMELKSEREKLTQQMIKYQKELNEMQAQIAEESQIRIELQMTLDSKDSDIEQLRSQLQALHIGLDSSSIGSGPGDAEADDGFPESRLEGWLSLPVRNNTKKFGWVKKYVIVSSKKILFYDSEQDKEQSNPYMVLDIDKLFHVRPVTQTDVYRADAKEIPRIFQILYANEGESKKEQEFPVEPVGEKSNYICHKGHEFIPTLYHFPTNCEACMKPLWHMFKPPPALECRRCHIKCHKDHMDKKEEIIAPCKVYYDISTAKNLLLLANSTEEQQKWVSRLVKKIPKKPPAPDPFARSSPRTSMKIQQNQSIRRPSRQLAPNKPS

SMILES	IC50
COc1cccc(CNC(=O)Nc2ccc(-c3cn[nH]c3)cc2OCCN(C)C)c1	< 1 nM
COc1cccc(CNC(=O)Nc2ccc(-c3ccncc3)cc2)c1	5 nM
COc1ccccc1CNC(=O)Nc1ccc(-c2cn[nH]c2)cc1	26 nM
COc1cccc(CNC(=O)Nc2ccc(-c3cn[nH]c3)cc2F)c1	< 1 nM
CCN(Cc1cccc(OC)c1)C(=O)Nc1ccc(-c2cn[nH]c2)cc1OCCN(C)C	3 nM
Cc1cccc(CNC(=O)Nc2ccc(-c3cn[nH]c3)cc2)c1	33 nM
COc1cccc(CNC(=O)Nc2ccc(-c3c[nH]nc3C)cc2)c1	2 nM
COc1cccc(CN(C)C(=O)Nc2ccc(-c3cn[nH]c3)cc2OCCN(C)C)c1	< 1 nM
COc1cccc(CNC(=O)Nc2ccc(-c3cn[nH]c3)cc2)c1	2 nM
CCN(Cc1cccc(OC)c1)C(=O)Nc1ccc(-c2cn[nH]c2)cc1OCCN1CCCC1	< 1 nM
O=C(NCc1cccc(F)c1)Nc1ccc(-c2cn[nH]c2)cc1	3 nM
COc1cccc(CN(C)C(=O)Nc2ccc(-c3cn[nH]c3)cc2N(C)CCN(C)C)c1	8 nM
COc1cccc(CNC(=O)Nc2ccc(-c3ccnc(N)c3)cc2)c1	44 nM
COc1cccc(CNC(=O)Nc2ccc(-c3cn[nH]c3)cc2Cl)c1	< 1 nM
COc1cccc(CNC(=O)Nc2ccc(-c3ccnc(N)n3)cc2)c1	13 nM
O=C(NCc1cccc(Cl)c1)Nc1ccc(-c2cn[nH]c2)cc1	17 nM
O=C(NCc1ccccc1)Nc1ccc(-c2cn[nH]c2)cc1	18 nM
COc1cccc(CN(C)C(=O)Nc2ccc(-c3cn[nH]c3)cc2OCCN2CCCC2)c1	< 1 nM
COc1cccc(CNC(=O)Nc2ccc(-c3ncnc4[nH]ccc34)cc2)c1	188 nM
COc1ccc(CNC(=O)Nc2ccc(-c3cn[nH]c3)cc2)cc1	2750 nM
COc1cccc(CNC(=O)Nc2ccc(-c3cn[nH]c3)cc2OC)c1	< 1 nM
Nc1cccc(CNC(=O)Nc2ccc(-c3cn[nH]c3)cc2)c1	3 nM
COc1cccc(CNC(=O)Nc2ccc(-c3cn[nH]c3)cc2N(C)CCN(C)C)c1	< 1 nM
CCN(Cc1cccc(OC)c1)C(=O)Nc1ccc(-c2cn[nH]c2)cc1N(C)CCN(C)C	6 nM
COc1cccc(CNC(=O)Nc2ccc(-c3cn[nH]c3)cc2OCCN2CCCC2)c1	< 1 nM
COc1cccc(CNC(=O)Nc2ccc(-c3cn[nH]c3)cc2N(C)C)c1	< 1 nM
